Experimental data taken from the NIST ThermoML archive (doi:10.1021/acs.jced.5b00857).
± gives the expanded uncertainty stated by the source.

Key:
[1] = Crystal; DTA
[2] = Molar enthalpy of transition or fusion; settings: Crystal; DSC

Normal melting temperature [1]: 118.70 ± 1.1 °C
Molar enthalpy of transition or fusion [2]: 7.24 ± 0.454 kcal/mol
Compound: O=C1OC[C@H]2[C@@H]1N(Cc1ccccc1)C(=O)N2Cc1ccccc1
